Here are results for three molecules from patent US20200291018A1, “TAM KINASE INHIBITORS” (SYROS PHARMACEUTICALS, INC., priority 2017, published 2020).

The structures appear in SMILES notation.

One assay concerns the target T1, FLT3 (Homo sapiens, UniProt P36888).
T1 sequence (P36888 27-993): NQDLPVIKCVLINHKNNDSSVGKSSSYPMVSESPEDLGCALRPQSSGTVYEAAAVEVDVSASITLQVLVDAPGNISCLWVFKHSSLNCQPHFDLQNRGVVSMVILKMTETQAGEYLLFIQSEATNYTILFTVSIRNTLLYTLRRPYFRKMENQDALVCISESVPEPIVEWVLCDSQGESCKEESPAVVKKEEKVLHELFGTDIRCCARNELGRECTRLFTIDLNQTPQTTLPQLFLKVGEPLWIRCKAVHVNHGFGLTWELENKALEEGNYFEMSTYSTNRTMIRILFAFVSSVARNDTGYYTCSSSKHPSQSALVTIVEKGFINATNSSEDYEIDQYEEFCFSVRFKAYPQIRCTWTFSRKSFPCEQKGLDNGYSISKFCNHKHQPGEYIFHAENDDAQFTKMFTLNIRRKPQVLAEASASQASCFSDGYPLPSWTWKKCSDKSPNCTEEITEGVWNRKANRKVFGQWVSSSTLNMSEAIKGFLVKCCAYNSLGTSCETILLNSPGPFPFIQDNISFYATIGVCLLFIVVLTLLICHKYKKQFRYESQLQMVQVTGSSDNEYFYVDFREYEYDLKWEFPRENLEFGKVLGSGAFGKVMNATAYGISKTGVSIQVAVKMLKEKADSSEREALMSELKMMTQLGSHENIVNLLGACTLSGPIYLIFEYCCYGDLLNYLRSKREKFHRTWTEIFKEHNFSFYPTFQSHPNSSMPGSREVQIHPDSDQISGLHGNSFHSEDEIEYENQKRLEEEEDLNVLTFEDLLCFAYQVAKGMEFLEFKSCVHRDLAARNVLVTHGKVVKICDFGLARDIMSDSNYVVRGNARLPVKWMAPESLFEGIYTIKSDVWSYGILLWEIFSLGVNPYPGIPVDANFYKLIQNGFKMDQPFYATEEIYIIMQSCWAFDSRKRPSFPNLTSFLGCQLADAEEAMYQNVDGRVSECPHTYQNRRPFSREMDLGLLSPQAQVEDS
Description: TR-FRET kinase activity assay, FLT3. The assay is classed as biochemical. As to conditions: ATP at Km, 60 minutes. The gist of the method:
(§1)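 TR-FRET signal from Eu-labeled phospho-site antibody bound to tyrosine-phosphorylated fluorescent peptide; inhibition lowers signal, giving IC50. Reactions: 50 mM HEPES pH 7.5, 10 mM MgCl2, 1 mM EGTA, 0.01% Brij 35, 1 mM DTT, ATP at Km per enzyme, 60 min, RT.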
A general note: TR-FRET usually uses a lanthanide donor and a delayed reading to cut background.

In another assay the target is T2, MERTK (Homo sapiens, UniProt Q12866).
T2 sequence (Q12866 21-999): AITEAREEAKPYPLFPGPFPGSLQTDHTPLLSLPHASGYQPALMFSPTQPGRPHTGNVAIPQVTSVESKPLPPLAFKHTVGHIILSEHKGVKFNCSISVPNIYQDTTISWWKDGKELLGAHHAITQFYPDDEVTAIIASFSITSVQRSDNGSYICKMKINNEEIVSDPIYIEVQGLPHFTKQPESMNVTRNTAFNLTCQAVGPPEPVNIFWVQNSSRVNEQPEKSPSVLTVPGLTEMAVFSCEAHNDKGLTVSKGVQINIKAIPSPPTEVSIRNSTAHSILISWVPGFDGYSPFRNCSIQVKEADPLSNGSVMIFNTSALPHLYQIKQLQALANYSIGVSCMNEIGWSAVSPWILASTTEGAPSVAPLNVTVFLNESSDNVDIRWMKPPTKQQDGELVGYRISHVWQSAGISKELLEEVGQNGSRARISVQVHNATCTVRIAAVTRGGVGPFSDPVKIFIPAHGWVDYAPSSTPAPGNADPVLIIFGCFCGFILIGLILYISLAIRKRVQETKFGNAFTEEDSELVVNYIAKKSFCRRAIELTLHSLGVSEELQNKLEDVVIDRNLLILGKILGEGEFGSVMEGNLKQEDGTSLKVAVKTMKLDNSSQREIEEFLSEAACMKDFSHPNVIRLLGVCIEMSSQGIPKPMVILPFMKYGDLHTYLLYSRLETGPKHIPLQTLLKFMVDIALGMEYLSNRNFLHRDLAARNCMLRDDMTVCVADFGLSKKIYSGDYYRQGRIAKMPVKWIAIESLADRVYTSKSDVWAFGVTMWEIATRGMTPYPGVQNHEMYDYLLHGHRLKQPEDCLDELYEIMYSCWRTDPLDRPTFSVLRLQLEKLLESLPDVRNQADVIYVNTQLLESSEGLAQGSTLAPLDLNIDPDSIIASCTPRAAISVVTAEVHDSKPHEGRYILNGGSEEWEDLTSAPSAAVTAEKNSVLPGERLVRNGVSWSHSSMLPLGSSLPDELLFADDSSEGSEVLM
Put plainly: TR-FRET kinase activity assay, MERTK. The assay is classed as biochemical. The following applies: for IC50: TR-FRET activity assay, ATP at Km, 60 minutes, read-out: Mer IC50; for Mer/Flt3 ratio (FLT3 IC50/Mer IC50): ratio calculated as FLT3 IC50/Mer IC50. The gist of the method:
as §1

The term IC50 denotes the concentration that inhibits the measured activity by half. With `C[C@@H](CC(F)(F)F)Nc1ncc2c(OC3CCN(C)CC3)ncc([C@H]3CC[C@H](O)CC3)c2n1` [Compound 352], the IC50 at FLT3 is 1000 to 10000 nM; at MERTK, at most 100 nM. For the same molecule, the “Mer/Flt3 ratio (FLT3 IC50/Mer IC50)” value at MERTK is “+++ (a ratio of >100)”.

With `O=C(O)[C@H]1CC[C@@H](Nc2ncc3c(OC4CCOCC4)ncc([C@H]4CC[C@H](O)CC4)c3n2)CC1` [Compound 353], at FLT3, the IC50 fell in the range of 1000 to 10000 nM. Further, on MERTK, the IC50 was in the range of 1000 to 10000 nM; the “Mer/Flt3 ratio (FLT3 IC50/Mer IC50)” value is “+ (a ratio of >2.0 and <10)”.

`COC[C@H](C)Nc1ncc2c(O[C@@H]3CCOC3)ncc([C@H]3CC[C@H](O)CC3)c2n1` [Compound 354] displayed a half-inhibitory concentration (IC50) on FLT3 of 1000 to 10000 nM. In addition, at MERTK, the IC50 is at most 100 nM and the “Mer/Flt3 ratio (FLT3 IC50/Mer IC50)” value is given as “+++ (a ratio of >100)”.
